# Results from ChEMBL document CHEMBL3526141, “Characterization of human liver enzymes involved in the biotransformation of boceprevir, a hepatitis C virus protease inhibitor” (Drug Metab Dispos, 2011).
# What was measured:
# Liver cytosol [1] = assay: Drug metabolism in human liver cytosol at 20 uM assessed as (1R,2S,5S)-N-((2R,3R)-4-amino-1-cyclobutyl-3-hydroxy-4-oxobutan-2-yl)-3-((S)-2-(3-tert-butylureido)-3,3-dimethylbutanoyl)-6,6-dimethyl-3-azabicyclo[3.1.0]hexane-2-carboxamide formation in presence of BNPP by LC-MS/MS/FSA method; assay type: ADME
# Liver cytosol [2] = assay: (§1) Drug metabolism in human liver cytosol at 20 uM assessed as (1R,2S,5S)-N-((2S,3R)-4-amino-1-cyclobutyl-3-hydroxy-4-oxobutan-2-yl)-3-((S)-2-(3-tert-butylureido)-3,3-dimethylbutanoyl)-6,6-dimethyl-3-azabicyclo[3.1.0]hexane-2-carboxamide formation in presence of BNPP by LC-MS/MS/FSA method; assay type: ADME
# Cytochrome P450 3A5 = Cytochrome P450 3A5 (Homo sapiens, UniProt P20815); assay: Drug metabolism assessed as human CYP3A5-mediated compound formation from 5 uM [14C]boceprevir after 120 mins by LC-MS/FSA method relative to total [14C]boceprevir; assay type: ADME; details: recombinant enzyme, 2 h
# Cytochrome P450 1A1 = molecular target: T1, Cytochrome P450 1A1 (Homo sapiens, UniProt P04798); assay: Drug metabolism assessed as human […]-mediated compound formation from 5 uM [14C]boceprevir after 120 mins by LC-MS/FSA method relative to total [14C]boceprevir; assay type: ADME; details: recombinant enzyme, 2 h
# T1 sequence (P04798 whole entry): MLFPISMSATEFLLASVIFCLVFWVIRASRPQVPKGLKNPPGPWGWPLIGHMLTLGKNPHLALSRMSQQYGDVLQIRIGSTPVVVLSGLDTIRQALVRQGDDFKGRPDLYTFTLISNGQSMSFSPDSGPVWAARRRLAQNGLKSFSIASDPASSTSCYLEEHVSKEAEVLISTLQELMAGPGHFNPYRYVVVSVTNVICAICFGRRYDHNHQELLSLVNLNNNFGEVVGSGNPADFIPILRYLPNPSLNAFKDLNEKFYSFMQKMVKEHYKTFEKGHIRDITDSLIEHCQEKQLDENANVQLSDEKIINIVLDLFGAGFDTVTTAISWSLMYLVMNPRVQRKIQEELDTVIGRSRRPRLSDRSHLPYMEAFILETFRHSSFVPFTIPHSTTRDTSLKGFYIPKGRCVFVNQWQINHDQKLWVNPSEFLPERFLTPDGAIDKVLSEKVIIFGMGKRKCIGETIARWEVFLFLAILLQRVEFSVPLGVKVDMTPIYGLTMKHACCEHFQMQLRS
# [3] = molecular target: T2, Aldo-keto reductase family 1 member C3 (Homo sapiens, UniProt P42330); assay: Drug metabolism in human recombinant […] HEK293 cells treated with 20 uM boceprevir assessed as 100 uM flufenamic acid-mediated inhibition of AKR1C3-mediated metabolite formation after 120 mins in presence of NADPH by LC-MS/MS/FSA method; assay type: ADME, cell-based; parameters: interact cpd dose 100 uM; details: hek293, 2 h
# T2 sequence (P42330 whole entry): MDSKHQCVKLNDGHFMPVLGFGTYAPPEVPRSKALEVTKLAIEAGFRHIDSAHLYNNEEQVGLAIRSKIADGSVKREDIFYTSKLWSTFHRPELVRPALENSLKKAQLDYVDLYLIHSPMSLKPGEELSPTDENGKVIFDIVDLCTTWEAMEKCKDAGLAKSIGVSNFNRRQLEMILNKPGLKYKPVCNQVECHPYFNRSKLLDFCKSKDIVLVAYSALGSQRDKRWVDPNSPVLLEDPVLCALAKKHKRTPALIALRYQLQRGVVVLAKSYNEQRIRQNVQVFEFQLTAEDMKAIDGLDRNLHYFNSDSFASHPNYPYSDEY
# Liver cytosol [4] = assay: Drug metabolism in human liver cytosol treated with 20 uM assessed as compound formation in presence of NADPH generating system by LC-MS/MS/FSA method; assay type: ADME
# Liver cytosol [5] = assay: Drug metabolism in human liver cytosol at 20 uM assessed as (1R,2S,5S)-N-((2S,3R)-4-amino-1-cyclobutyl-3-hydroxy-4-oxobutan-2-yl)-3-((S)-2-(3-tert-butylureido)-3,3-dimethylbutanoyl)-6,6-dimethyl-3-azabicyclo[3.1.0]hexane-2-carboxamide formation in presence of allopurinol by LC-MS/MS/FSA method; assay type: ADME
# [6] = molecular target: T2, Aldo-keto reductase family 1 member C3; assay: (§2) Activity of human recombinant AKR1C3 expressed in HEK293 cells assessed as (1R,2S,5S)-N-((2S,3R)-4-amino-1-cyclobutyl-3-hydroxy-4-oxobutan-2-yl)-3-((S)-2-(3-tert-butylureido)-3,3-dimethylbutanoyl)-6,6-dimethyl-3-azabicyclo[3.1.0]hexane-2-carboxamide formation per mg protein after 120 mins in presence of NADPH by LC-MS/MS/FSA method; assay type: ADME, cell-based; details: hek293, 2 h
# Liver cytosol [7] = assay: as §1, with “formation at 20 uM after 60 mins” for “formation”, “pre-incubation with ritonavir” for “BNPP”; assay type: ADME; details: 1 h
# [8] = Drug excretion in human feces; assay type: ADME; parameters: dosed compound name [14C]boceprevir
# [9] = Drug excretion in human urine; assay type: ADME; parameters: dosed compound name [14C]boceprevir
# [10] = as §1, with “S9 fraction” for “cytosol”, “flufenamic acid” for “BNPP”; assay type: ADME, subcellular; details: s9, 20 µM
# Liver cytosol [11] = assay: Drug metabolism in human liver cytosol at 20 uM assessed as (1R,2S,5S)-N-((2S,3R)-4-amino-1-cyclobutyl-3-hydroxy-4-oxobutan-2-yl)-3-((S)-2-(3-tert-butylureido)-3,3-dimethylbutanoyl)-6,6-dimethyl-3-azabicyclo[3.1.0]hexane-2-carboxamide formation in presence of quercetin by LC-MS/MS/FSA method; assay type: ADME
# [12] = molecular target: T3, Aldo-keto reductase family 1 member C4 (Homo sapiens, UniProt P17516); assay: as §2, with “AKR1C4” for “AKR1C3”; assay type: ADME, cell-based; details: hek293, 2 h
# T3 sequence (P17516 whole entry): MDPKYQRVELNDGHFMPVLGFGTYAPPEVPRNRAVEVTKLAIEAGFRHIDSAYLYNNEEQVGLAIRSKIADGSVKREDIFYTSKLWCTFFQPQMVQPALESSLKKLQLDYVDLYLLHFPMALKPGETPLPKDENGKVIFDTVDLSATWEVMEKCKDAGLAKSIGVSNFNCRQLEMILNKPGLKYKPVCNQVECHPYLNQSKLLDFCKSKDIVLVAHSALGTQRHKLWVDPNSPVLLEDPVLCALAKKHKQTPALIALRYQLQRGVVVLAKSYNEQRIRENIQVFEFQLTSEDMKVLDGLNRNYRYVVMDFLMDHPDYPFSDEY
# Liver cytosol [13] = assay: as §1, with “formation at 20 uM after 60 mins” for “formation”, “AKR inhibitor diazepam” for “BNPP”; assay type: ADME; details: 1 h
# Liver cytosol [14] = assay: as §1, with “formation at 20 uM after 60 mins” for “formation”, “AKR inhibitor ibuprofen” for “BNPP”; assay type: ADME; details: 1 h
# Liver cytosol [15] = assay: as §1, with “formation at 20 uM after 60 mins” for “formation”, “ketoconazole” for “BNPP”; assay type: ADME; details: 1 h
# Chain of Cytochrome P450 3A5 (P20815 whole entry): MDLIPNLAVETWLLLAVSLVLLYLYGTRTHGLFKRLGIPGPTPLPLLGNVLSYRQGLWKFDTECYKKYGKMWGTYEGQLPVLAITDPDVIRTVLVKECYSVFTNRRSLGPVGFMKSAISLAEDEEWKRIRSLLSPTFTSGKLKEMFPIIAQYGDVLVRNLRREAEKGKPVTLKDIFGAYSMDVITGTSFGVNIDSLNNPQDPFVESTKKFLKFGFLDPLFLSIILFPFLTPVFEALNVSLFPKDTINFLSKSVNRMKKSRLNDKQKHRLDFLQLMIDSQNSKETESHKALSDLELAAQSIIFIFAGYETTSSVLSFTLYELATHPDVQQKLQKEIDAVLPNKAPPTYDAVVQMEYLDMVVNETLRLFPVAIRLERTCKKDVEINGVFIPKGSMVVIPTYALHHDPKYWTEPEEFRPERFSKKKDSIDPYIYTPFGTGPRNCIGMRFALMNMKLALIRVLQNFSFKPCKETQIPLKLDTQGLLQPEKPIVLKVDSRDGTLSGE
Compound recovery (Liver cytosol [1]),Compound recovery (Liver cytosol [2]),Compound recovery (Cytochrome P450 3A5),Compound recovery (Cytochrome P450 1A1),inhibition (INH) [3],Compound recovery (Liver cytosol [4]),Compound recovery (Liver cytosol [5]),Vmax [6],Compound recovery (Liver cytosol [7]),Radiolabel recovery [8],Radiolabel recovery [9],Compound recovery [10],Compound recovery (Liver cytosol [11]),Compound recovery [12],Compound recovery (Liver cytosol [13]),Compound recovery (Liver cytosol [14]),Compound recovery (Liver cytosol [15]),Compound
metabolite_not_detected,metabolite_not_detected,2.19%,33.4%,,,,,,,,,,,,,,CC(C)(C)NC(=O)N[C@H](C(=O)N1C[C@H]2[C@@H]([C@H]1C(=O)N[C@H](CC1CCC1)C(=O)C(N)=O)C2(C)C)C(C)(C)C
,,,0.57%,93%,68%,,,,,,,,,,,,CC(C)(C)NC(=O)N[C@H](C(=O)N1C[C@H]2[C@@H]([C@H]1C(=O)N[C@@H](CC1CCC1)[C@@H](O)C(N)=O)C2(C)C)C(C)(C)C
metabolite_not_detected,metabolite_not_detected,,,,,metabolite_detected,639 pmol/min,metabolite_detected,79%,9.3%,metabolite_not_detected,metabolite_not_detected,metabolite_not_detected,metabolite_not_detected,metabolite_not_detected,metabolite_detected,CC(C)(C)NC(=O)N[C@H](C(=O)N1C[C@H]2[C@@H]([C@H]1C(=O)NC(CC1CCC1)C(=O)C(N)=O)C2(C)C)C(C)(C)C (stereo not given in full) [BOCEPREVIR]
